Measurements published in PubChem BioAssay AID1963853 (Molecular Pharmacology Branch, DTP, NCI, 2024).

System: 266295-075-R-J1-PDC spheroid viability
Assay: Anticancer human tumor 266295-075-R-J1-PDC patient-derived head and neck squamous carcinoma cell line growth inhibition [POLQ]
Conditions: spheroids with HUVEC and MSC; for IC50: curve of first compound; for viability, T/C: stronger effect = lower value
In short: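 PDC + HUVEC + MSC complex spheroids; POLQ inhibitors ± partner drugs; top conc. at/near clinical Cmax, else 10 microM (SN-38 1 microM), half-log dilutions; 37 degrees C, 5% CO2.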

[1] = second compound 0.0316 µM, first compound 0.0316 µM
[2] = second compound 0.0316 µM, first compound 0.1 µM
[3] = second compound 0.0316 µM, first compound 0.316 µM
[4] = second compound 0.0316 µM, first compound 1 µM
[5] = second compound 0.0316 µM, first compound 3.16 µM
[6] = second compound 0.0316 µM, first compound 10 µM
[7] = second compound 0.1 µM, first compound 0.0316 µM
[8] = second compound 0.1 µM, first compound 0.1 µM
[9] = second compound 0.1 µM, first compound 0.316 µM
[10] = second compound 0.1 µM, first compound 1 µM
[11] = second compound 0.1 µM, first compound 3.16 µM
[12] = second compound 0.1 µM, first compound 10 µM
[13] = second compound 0.316 µM, first compound 0.0316 µM
[14] = second compound 0.316 µM, first compound 0.1 µM
[15] = second compound 0.316 µM, first compound 0.316 µM
[16] = second compound 0.316 µM, first compound 1 µM
[17] = second compound 0.316 µM, first compound 3.16 µM
[18] = second compound 0.316 µM, first compound 10 µM
[19] = second compound 1 µM, first compound 0.0316 µM
[20] = second compound 1 µM, first compound 0.1 µM
[21] = second compound 1 µM, first compound 0.316 µM
[22] = second compound 1 µM, first compound 1 µM
[23] = second compound 1 µM, first compound 3.16 µM
[24] = second compound 1 µM, first compound 10 µM
[25] = second compound 3.16 µM, first compound 0.0316 µM
[26] = second compound 3.16 µM, first compound 0.1 µM
[27] = second compound 3.16 µM, first compound 0.316 µM
[28] = second compound 3.16 µM, first compound 1 µM
[29] = second compound 3.16 µM, first compound 3.16 µM
[30] = second compound 3.16 µM, first compound 10 µM
[31] = second compound 10 µM, first compound 0.0316 µM
[32] = second compound 10 µM, first compound 0.1 µM
[33] = second compound 10 µM, first compound 0.316 µM
[34] = second compound 10 µM, first compound 1 µM
[35] = second compound 10 µM, first compound 3.16 µM
[36] = second compound 10 µM, first compound 10 µM
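Also: spheroids exposed to compounds for seven days before readout.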

For `CC1COCCN1c1cc(-c2ccnn2C)c2ccnc(-c3ccn[nH]3)c2n1` (stereo not drawn) + Cc1cccc(N(C)C(=O)C2C(O)CCN2c2nc(C)cc(C(F)(F)F)c2C#N)c1, the IC50 (second compound 0.0316 µM) was 1640 nM, the IC50 (second compound 0.1 µM) was 1320 nM and the IC50 (second compound 0.316 µM) was 1400 nM. It also gave an IC50 (second compound 1 µM) of 1150 nM, an IC50 (second compound 3.16 µM) of 1870 nM and an IC50 (second compound 10 µM) of 1780 nM. It also gave a viability, T/C [1] of 93.8%, a viability, T/C [2] of 69.7% and a viability, T/C [3] of 68.4%. It also gave a viability, T/C [4] of 56%, a viability, T/C [5] of 41% and a viability, T/C [6] of 40%. It also gave a viability, T/C [7] of 87.2%, a viability, T/C [8] of 68.4% and a viability, T/C [9] of 60.9%. For the same compound, the viability, T/C [10] was 52.6%, the viability, T/C [11] was 45.2% and the viability, T/C [12] was 40.9%. It also gave a viability, T/C [13] of 75.6%, a viability, T/C [14] of 78.2% and a viability, T/C [15] of 68.9%. It also gave a viability, T/C [16] of 50.7%, a viability, T/C [17] of 47.4% and a viability, T/C [18] of 36.9%. For the same compound, the viability, T/C [19] was 89%, the viability, T/C [20] was 81.6% and the viability, T/C [21] was 69.4%. The viability, T/C [22] was 48.4%, the viability, T/C [23] was 46.3% and the viability, T/C [24] was 38.1%. It also gave a viability, T/C [25] of 81.3%, a viability, T/C [26] of 78.4% and a viability, T/C [27] of 66.8%. For the same compound, the viability, T/C [28] was 54.9%, the viability, T/C [29] was 46.6% and the viability, T/C [30] was 36.7%. It also gave a viability, T/C [31] of 87.4%, a viability, T/C [32] of 90.1% and a viability, T/C [33] of 69.7%. For the same compound, the viability, T/C [34] was 56.3%, the viability, T/C [35] was 46.1% and the viability, T/C [36] was 38%.

In the case of `CCc1cc2c(N3CCc4c(cc(Cn5ccnc5)cc4-c4cn(C)nc4C(F)(F)F)C3=O)cc(C)nc2c(OC)n1` + Nc1ccc(C#CCN(C(=O)Cc2ncc(C(F)(F)F)cc2C(F)(F)F)c2ccc(F)cc2)nn1, the IC50 (second compound 0.0316 µM) is reported as > 10000 nM, the IC50 (second compound 0.1 µM) is reported as > 10000 nM and the IC50 (second compound 0.316 µM) is reported as > 10000 nM. For the same compound, the IC50 (second compound 1 µM) was > 10000 nM, the IC50 (second compound 3.16 µM) was > 10000 nM and the IC50 (second compound 10 µM) was > 10000 nM. It also gave a viability, T/C [1] of 103%, a viability, T/C [2] of 96.2% and a viability, T/C [3] of 127%. For the same compound, the viability, T/C [4] was 141%, the viability, T/C [5] was 122% and the viability, T/C [6] was 149%. It also gave a viability, T/C [7] of 112%, a viability, T/C [8] of 113% and a viability, T/C [9] of 105%. For the same compound, the viability, T/C [10] was 141%, the viability, T/C [11] was 163% and the viability, T/C [12] was 137%. The viability, T/C [13] was 102%, the viability, T/C [14] was 105% and the viability, T/C [15] was 91%. For the same compound, the viability, T/C [16] was 144%, the viability, T/C [17] was 129% and the viability, T/C [18] was 152%. The viability, T/C [19] was 106%, the viability, T/C [20] was 94.2% and the viability, T/C [21] was 96.7%. The viability, T/C [22] was 136%, the viability, T/C [23] was 123% and the viability, T/C [24] was 133%. It also gave a viability, T/C [25] of 95.3%, a viability, T/C [26] of 109% and a viability, T/C [27] of 130%. For the same compound, the viability, T/C [28] was 126%, the viability, T/C [29] was 118% and the viability, T/C [30] was 120%. For the same compound, the viability, T/C [31] was 106%, the viability, T/C [32] was 93.9% and the viability, T/C [33] was 106%. The viability, T/C [34] was 115%, the viability, T/C [35] was 127% and the viability, T/C [36] was 139%.

`C=CCn1c(=O)c2cnc(Nc3ccc(N4CCN(C)CC4)cc3)nc2n1-c1cccc(C(C)(C)O)n1` + COC1C(OC(N)=O)C(O)C(Oc2ccc3c(O)c(NC(=O)c4ccc(O)c(CC=C(C)C)c4)c(=O)oc3c2C)OC1(C)C was tested, and the IC50 (second compound 0.0316 µM) was > 1000 nM, the IC50 (second compound 0.1 µM) was > 1000 nM and the IC50 (second compound 0.316 µM) was > 1000 nM. The IC50 (second compound 1 µM) was > 1000 nM, the IC50 (second compound 3.16 µM) was > 1000 nM and the IC50 (second compound 10 µM) was > 1000 nM. It also gave a viability, T/C (second compound 0.0316 µM, first compound 0.00316 µM) of 106%, a viability, T/C (second compound 0.0316 µM, first compound 0.01 µM) of 111% and a viability, T/C [1] of 103%. The viability, T/C [2] was 102%, the viability, T/C [3] was 91.4% and the viability, T/C [4] was 65.5%. For the same compound, the viability, T/C (second compound 0.1 µM, first compound 0.00316 µM) was 112%, the viability, T/C (second compound 0.1 µM, first compound 0.01 µM) was 94.6% and the viability, T/C [7] was 82.5%. For the same compound, the viability, T/C [8] was 82.7%, the viability, T/C [9] was 77.2% and the viability, T/C [10] was 95.6%. It also gave a viability, T/C (second compound 0.316 µM, first compound 0.00316 µM) of 102%, a viability, T/C (second compound 0.316 µM, first compound 0.01 µM) of 93.8% and a viability, T/C [13] of 95%. The viability, T/C [14] was 104%, the viability, T/C [15] was 87.4% and the viability, T/C [16] was 70.6%. For the same compound, the viability, T/C (second compound 1 µM, first compound 0.00316 µM) was 97.1%, the viability, T/C (second compound 1 µM, first compound 0.01 µM) was 85.9% and the viability, T/C [19] was 92%. It also gave a viability, T/C [20] of 95.8%, a viability, T/C [21] of 91.3% and a viability, T/C [22] of 66.3%. For the same compound, the viability, T/C (second compound 3.16 µM, first compound 0.00316 µM) was 96%, the viability, T/C (second compound 3.16 µM, first compound 0.01 µM) was 90.8% and the viability, T/C [25] was 96.7%. The viability, T/C [26] was 98.3%, the viability, T/C [27] was 88.6% and the viability, T/C [28] was 65.3%. It also gave a viability, T/C (second compound 10 µM, first compound 0.00316 µM) of 104%, a viability, T/C (second compound 10 µM, first compound 0.01 µM) of 88.9% and a viability, T/C [31] of 102%. It also gave a viability, T/C [32] of 87.2%, a viability, T/C [33] of 87% and a viability, T/C [34] of 73.4%.

In the case of `CCCS(=O)(=O)Nc1ccc(F)c(C(=O)c2c[nH]c3ncc(-c4ccc(Cl)cc4)cc23)c1F` + COC1C(OC(N)=O)C(O)C(Oc2ccc3c(O)c(NC(=O)c4ccc(O)c(CC=C(C)C)c4)c(=O)oc3c2C)OC1(C)C, the IC50 (second compound 0.0316 µM) is reported as > 10000 nM, the IC50 (second compound 0.1 µM) is reported as > 10000 nM and the IC50 (second compound 0.316 µM) is reported as > 10000 nM. The IC50 (second compound 1 µM) was > 10000 nM, the IC50 (second compound 3.16 µM) was > 10000 nM and the IC50 (second compound 10 µM) was > 10000 nM. For the same compound, the viability, T/C [1] was 99%, the viability, T/C [2] was 116% and the viability, T/C [3] was 107%. The viability, T/C [4] was 115%, the viability, T/C [5] was 169% and the viability, T/C [6] was 172%. It also gave a viability, T/C [7] of 101%, a viability, T/C [8] of 121% and a viability, T/C [9] of 105%. For the same compound, the viability, T/C [10] was 112%, the viability, T/C [11] was 157% and the viability, T/C [12] was 222%. The viability, T/C [13] was 116%, the viability, T/C [14] was 102% and the viability, T/C [15] was 102%. For the same compound, the viability, T/C [16] was 128%, the viability, T/C [17] was 155% and the viability, T/C [18] was 195%. It also gave a viability, T/C [19] of 117%, a viability, T/C [20] of 102% and a viability, T/C [21] of 102%. For the same compound, the viability, T/C [22] was 113%, the viability, T/C [23] was 143% and the viability, T/C [24] was 172%. The viability, T/C [25] was 98.7%, the viability, T/C [26] was 87.5% and the viability, T/C [27] was 140%. It also gave a viability, T/C [28] of 130%, a viability, T/C [29] of 139% and a viability, T/C [30] of 178%. It also gave a viability, T/C [31] of 112%, a viability, T/C [32] of 95.5% and a viability, T/C [33] of 111%. For the same compound, the viability, T/C [34] was 153%, the viability, T/C [35] was 144% and the viability, T/C [36] was 166%.
